Test results reported in PubChem BioAssay AID1259408 (Genetic Toxicology Data Bank (GENE-TOX), 2018).
Calls of active or inactive are those of the source. How the calls were made is not given here.

Test system: GENE-TOX genotoxicity assays, various organisms and cells
Assay: GENE-TOX mutagenicity studies
Settings: for call: Assay Type: In vivo carcinogenicity studies, Assay Code: CCG+
Description: GENE-TOX provides genetic toxicology (mutagenicity) test data from expert peer review of open scientific literature for more than 3,000 chemicals from the United States Environmental Protection Agency (EPA). GENE-TOX was established to select assay systems for evaluation, review data in the scientific literature, and recommend proper testing protocols and evaluation procedures for these systems.
GENE-TOX covers the years 1991 - 1998. It is no longer updated.
This is an archive assay for GENE-TOX mutagenicity studies.

[1] = Species/Cell Type: Nonhuman, Evaluation Type: Evaluation A (Pre-1980)
[2] = Species/Cell Type: Salmonella typhimurium (one or more of the five standard strains: TA98, TA100, TA1535, TA1537, and TA1538), Assay Type: Histidine reverse gene mutation, Ames assay, Assay Code: SAL+, Evaluation Type: Evaluation A (Pre-1980)
[3] = Species/Cell Type: Drosophila melanogaster, Assay Type: Sex-linked recessive lethal gene mutation, Assay Code: SRLT, Evaluation Type: Evaluation A (Pre-1980)

## O=S(=O)(O)c1cc(S(=O)(=O)O)c2c(N=Nc3ccc(S(=O)(=O)O)c4ccccc34)c(O)ccc2c1
Species/Cell Type: Bacillus subtilis (H17 vs M45), Assay Type: Rec-assay, spot test, DNA effects (bacterial DNA repair), Assay Code: REWT, Evaluation Type: Evaluation A (Pre-1980)
  mutagenic call: no conclusion
Species/Cell Type: Bacillus subtilis (H17 vs M45T), Assay Type: Rec-assay, spot test, DNA effects (bacterial DNA repair), Assay Code: REXT, Evaluation Type: Evaluation A (Pre-1980)
  mutagenic call: no conclusion
Species/Cell Type: Saccharomyces cerevisiae, Assay Type: Mitotic recombination or gene conversion, Assay Code: YEC-, Evaluation Type: Evaluation A (Pre-1980)
  mutagenic call: inactive; negative

## CN(C)CCC(=O)c1ccc2c(c1)OCO2
Species/Cell Type: Salmonella typhimurium, Assay Type: Forward and reverse gene mutation, host-mediated assay, Assay Code: HMA-, Evaluation Type: Evaluation A (Pre-1980)
  mutagenic call: inactive; negative

## O=[N+]([O-])c1ccc2c3c(cccc13)CC2
[1]
  call: active; positive
[2]
  mutagenic call: active; positive

## CNC(=O)C(C)SCCSP(=O)(OC)OC (stereo unspecified)
Species/Cell Type: Bacillus subtilis (H17 vs M45), Assay Type: Rec-assay, spot test, DNA effects (bacterial DNA repair), Assay Code: REW+, Evaluation Type: Evaluation A (Pre-1980)
  mutagenic call: active; positive
Species/Cell Type: Escherichia coli WP2, Assay Type: Tryptophan reverse gene mutation, Assay Code: WP2+, Evaluation Type: Evaluation A (Pre-1980)
  mutagenic call: active; positive
Species/Cell Type: Escherichia coli WP2 UVRA, Assay Type: Tryptophan reverse gene mutation, Assay Code: WPU+, Evaluation Type: Evaluation A (Pre-1980)
  mutagenic call: active; positive
Species/Cell Type: Nonhuman, Assay Type: Sister-chromatid exchange (SCE) in vitro, Assay Code: SC2+D, Dose Response: With dose response, Evaluation Type: Evaluation B (Post-1980)
  mutagenic call: active; positive
[2]
  mutagenic call: active; positive

## C[n+]1c(-c2ccc(N)cc2)c2cc(N)ccc2c2ccc(N)cc21
[2]
  mutagenic call: active; positive

## CCCN1CCN(c2ccc([N+](=O)[O-])c3no[n+]([O-])c23)CC1
[2]
  mutagenic call: active; positive

## C=CCc1ccc2c(c1)OCO2
Species/Cell Type: Drosophila melanogaster, Assay Type: Sex-linked recessive lethal gene mutation, Assay Code: SRL-, Evaluation Type: Evaluation A (Pre-1980)
  mutagenic call: inactive; negative
Species/Cell Type: Escherichia coli polA (W3110 vs P3478), Assay Type: Rec-assay, DNA effects (bacterial DNA repair), Assay Code: RE2+, Evaluation Type: Evaluation A (Pre-1980)
  mutagenic call: active; positive
Species/Cell Type: Escherichia coli polA (W3119 vs P3478), Assay Type: Rec-assay, DNA effects (bacterial DNA repair), Assay Code: RE1+, Evaluation Type: Evaluation A (Pre-1980)
  mutagenic call: active; positive
Species/Cell Type: Human diploid fibroblasts, Assay Type: Unscheduled DNA synthesis (UDS) in vitro, DNA effects, Assay Code: UDH-*, Activation: With metabolic activation, Evaluation Type: Evaluation A (Pre-1980)
  mutagenic call: inactive; negative
Species/Cell Type: Mammalian polychromatic erythrocytes, Assay Type: Micronucleus test, chromosome aberrations, Assay Code: MNTT, Evaluation Type: Evaluation A (Pre-1980)
  mutagenic call: no conclusion
Species/Cell Type: Mouse, Sex: Male, Assay Type: Sperm morphology, Assay Code: SPIT, Evaluation Type: Evaluation A (Pre-1980)
  mutagenic call: no conclusion
[1]
  call: active; positive
Species/Cell Type: Nonhuman, Assay Type: Sister-chromatid exchange (SCE) in vitro, Assay Code: SC2+, Evaluation Type: Evaluation B (Post-1980)
  mutagenic call: active; positive
Species/Cell Type: Saccharomyces cerevisiae, Assay Type: Mitotic recombination or gene conversion, Assay Code: YEH+, Evaluation Type: Evaluation A (Pre-1980)
  mutagenic call: active; positive
Species/Cell Type: Salmonella typhimurium (one or more of the five standard strains: TA98, TA100, TA1535, TA1537, and TA1538), Assay Type: Histidine reverse gene mutation, Ames assay, Assay Code: SAL-, Evaluation Type: Evaluation A (Pre-1980)
  mutagenic call: inactive; negative
Species/Cell Type: Salmonella typhimurium, Assay Type: Forward and reverse gene mutation, host-mediated assay, Assay Code: HMA+, Evaluation Type: Evaluation A (Pre-1980)
  mutagenic call: active; positive
Species/Cell Type: Syrian hamster embryo (SHE) cells, Assay Type: Cell transformation, clonal assay, Assay Code: CTC+, Evaluation Type: Evaluation A (Pre-1980)
  mutagenic call: active; positive
Species/Cell Type: Tradescantia species, Assay Type: Gene mutation, Assay Code: TRM+D, Dose Response: With dose response, Evaluation Type: Evaluation A (Pre-1980)
  mutagenic call: active; positive

## Cc1c2ccccc2c(CCl)c2ccc3ccccc3c12
[2]
  mutagenic call: active; positive

## COc1c(Cl)ccc2oc3cc4c(c(OC)c3c(=O)c12)[C@@H]1C=CO[C@@H]1O4
Species/Cell Type: Salmonella typhimurium (one or more of the five standard strains: TA98, TA100, TA1535, TA1537, and TA1538), Assay Type: Histidine reverse gene mutation, Ames assay, Assay Code: SAL+*, Activation: With metabolic activation, Evaluation Type: Evaluation A (Pre-1980)
  mutagenic call: active; positive

## CCCc1cc(=O)[nH]c(=S)[nH]1
[1]
  call: active; positive

## O=[N+]([O-])c1cnc[nH]1
Species/Cell Type: Salmonella typhimurium (one or more of the five standard strains: TA98, TA100, TA1535, TA1537, and TA1538), Assay Type: Histidine reverse gene mutation, Ames assay, Assay Code: SALT, Evaluation Type: Evaluation A (Pre-1980)
  mutagenic call: no conclusion

## Cc1cc(N)c(N)cc1C
Species/Cell Type: Mammalian polychromatic erythrocytes, Assay Type: Micronucleus test, chromosome aberrations, Assay Code: MNTT, Evaluation Type: Evaluation B (Post-1980)
  mutagenic call: no conclusion

## Nc1ccc(Cl)c(N)c1
[1]
  call: active; positive

## CN(C)N=Nc1cccc(O)c1
[3]
  mutagenic call: no conclusion
Species/Cell Type: Saccharomyces cerevisiae, Assay Type: Mitotic recombination or gene conversion, Assay Code: YEC+, Evaluation Type: Evaluation A (Pre-1980)
  mutagenic call: active; positive

## Cc1ccc2ccc3c(C)c4ccccc4c4ccc1c2c34
[3]
  mutagenic call: no conclusion

## C/C=C1/C[C@@H](C)[C@@](C)(O)C(=O)OCC2=CCN3CC[C@@H](OC1=O)[C@@H]23
Species/Cell Type: Drosophila melanogaster, Assay Type: Sex-linked recessive lethal gene mutation, Assay Code: SRL+, Evaluation Type: Evaluation A (Pre-1980)
  mutagenic call: active; positive
